The term IC50 denotes the concentration that gives 50% inhibition. A higher IC50 goes with lower potency.

We go through one molecule from article PMC11589582, “Structural mechanisms of human sodium-coupled high-affinity choline transporter CHT1” (Cell Discovery, 2024).

This assay has as its target T1, sodium-coupled high-affinity choline transporter CHT1 (Homo sapiens, UniProt Q9GZV3).
T1 construct: gene SLC5A7; Full-length human CHT1 (NP_068587.1) with a C-terminal Strep-tag
T1 sequence (Q9GZV3 1-580): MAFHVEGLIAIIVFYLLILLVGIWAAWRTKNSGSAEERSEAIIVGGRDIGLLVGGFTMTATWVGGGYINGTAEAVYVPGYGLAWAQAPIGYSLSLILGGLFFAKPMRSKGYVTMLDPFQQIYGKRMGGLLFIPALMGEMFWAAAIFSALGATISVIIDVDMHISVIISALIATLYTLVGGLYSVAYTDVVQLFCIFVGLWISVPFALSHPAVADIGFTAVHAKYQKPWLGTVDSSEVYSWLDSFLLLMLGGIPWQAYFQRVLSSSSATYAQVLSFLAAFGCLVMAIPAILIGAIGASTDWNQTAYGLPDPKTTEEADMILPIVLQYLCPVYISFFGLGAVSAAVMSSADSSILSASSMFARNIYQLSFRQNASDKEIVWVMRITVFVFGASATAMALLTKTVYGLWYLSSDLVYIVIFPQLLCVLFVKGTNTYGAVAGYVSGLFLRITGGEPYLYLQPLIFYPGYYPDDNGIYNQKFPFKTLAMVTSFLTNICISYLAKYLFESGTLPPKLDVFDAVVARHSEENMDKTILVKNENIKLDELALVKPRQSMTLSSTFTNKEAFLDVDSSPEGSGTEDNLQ
Nature of the assay: cryo-EM structure at […] Å; [3H]-choline uptake inhibition in CHT1-expressing HEK293 cells. The class given is cell-based.

`C[N+]1(C)CCOC(O)(c2ccc(-c3ccc(C4(O)C[N+](C)(C)CCO4)cc3)cc2)C1` (stereo not shown) [HC3, hemicholinium-3] yielded an IC50 of 4.98 ± 1.04 nM.
